Laboratory results published in US12011444B2, “N-substituted indole derivatives as PGE2 receptor modulators” (Idorsia Pharmaceuticals Ltd, priority 2015, dated 2024).
Read-outs that look alike come from different tables or passages of the source.

How the values were obtained:
[1] = target: EP4 (Homo sapiens (Human), UniProt P35408); experiment: hEP4 cAMP assay (BT549 breast cancer cells, HTRF cAMP); format: cell-based; conditions: antagonistic activity; mean values where measured multiple times
EP4, sequence (P35408 whole entry): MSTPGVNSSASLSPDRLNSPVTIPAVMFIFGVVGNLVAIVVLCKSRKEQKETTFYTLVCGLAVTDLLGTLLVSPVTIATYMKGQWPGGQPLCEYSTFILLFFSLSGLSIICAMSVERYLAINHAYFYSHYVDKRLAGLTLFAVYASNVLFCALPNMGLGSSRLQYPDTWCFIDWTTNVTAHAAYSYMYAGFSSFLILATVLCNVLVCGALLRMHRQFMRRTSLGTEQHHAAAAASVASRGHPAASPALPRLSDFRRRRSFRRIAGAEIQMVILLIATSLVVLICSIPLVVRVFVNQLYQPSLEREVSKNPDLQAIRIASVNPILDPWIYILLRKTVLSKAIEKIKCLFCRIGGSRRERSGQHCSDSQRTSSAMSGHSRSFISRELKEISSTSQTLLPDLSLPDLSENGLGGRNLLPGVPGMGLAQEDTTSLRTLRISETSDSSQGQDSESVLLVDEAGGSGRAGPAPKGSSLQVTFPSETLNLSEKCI
Experimental: Plate is pre-incubated 45 minutes at room temperature. Subsequently, 2.5 microliters of PGE2 (final conc. 6 nM) are transferred into the assay plate. Plate is incubated 30 minutes at room temperature.

[2] = target: T1, EP2 (Homo sapiens (Human), UniProt P43116); experiment: cell-based;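 note: antagonism of PGE2-stimulated cAMP accumulation in SF295 human glioblastoma cells with endogenous EP2, cAMP read by HTRF, expressed relative to DMSO control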
T1 sequence (P43116 whole entry): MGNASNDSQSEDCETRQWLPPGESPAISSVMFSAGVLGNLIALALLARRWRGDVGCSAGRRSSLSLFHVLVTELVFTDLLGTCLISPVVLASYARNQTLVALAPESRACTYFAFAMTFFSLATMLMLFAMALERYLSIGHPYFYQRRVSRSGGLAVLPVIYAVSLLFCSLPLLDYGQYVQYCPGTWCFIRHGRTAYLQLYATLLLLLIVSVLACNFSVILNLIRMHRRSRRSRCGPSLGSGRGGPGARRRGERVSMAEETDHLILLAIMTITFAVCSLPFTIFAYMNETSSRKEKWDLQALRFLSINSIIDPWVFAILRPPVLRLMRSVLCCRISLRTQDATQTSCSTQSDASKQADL

[3] = target: T1, EP2

SMILES | IC50 [1] | IC50 [2] | IC50 [3]
CCOc1cc(-c2cc(NCC(C)n3c(C)cc4c(OC)ccc(F)c43)ncn2)ccc1C(=O)O (racemic) [Example 794, rac-2-Ethoxy-4-{6-[2-(7-fluoro-4-methoxy-2-methyl-indol-1-yl)-propylamino]-pyrimidin-4-yl}-benzoic acid] | 798 nM | 309 nM | –
COc1ccc(F)c2c1cc(C)n2C(C)CNc1cc(-c2ccc(C(=O)O)c(CC(C)C)c2)ncn1 (racemic) [Example 795, rac-4-{6-[2-(7-Fluoro-4-methoxy-2-methyl-indol-1-yl)-propylamino]-pyrimidin-4-yl}-2-isobutyl-benzoic acid] | 306 nM | 85 nM | –
COc1cccc2c1cc(C)n2CCNc1cc(-c2ccc3c(c2)C(CC(C)C)NC3=O)ncn1 (racemic) [compound 461] | 224 nM | 24 nM | –
CCCC1NC(=O)c2ccc(-c3cc(NCCn4c(C)cc5c(OC)ccc(F)c54)ncn3)cc21 (racemic) [compound 465] | 75 nM | 17 nM | –
Cc1ccc(F)c2c1cc(C)n2CCNc1cc(-c2ccc3c(c2)C(CC(C)C)NC3=O)ncn1 (racemic) [compound 468] | 264 nM | 59 nM | –
COc1ccc(F)c2c1cc(C)n2CCNc1cc(-c2ccc3c(c2)C(CC(C)C)NC3=O)ncn1 (racemic) [compound 474] | 224 nM | 22 nM | –
CCOc1cc(-c2cc(NCCn3c(C)cc4c(OC)ccc(F)c43)ncn2)ccc1C(O)C(F)(F)F (racemic) [compound 571] | 511 nM | 149 nM | –
COc1cccc2c1cc(C)n2CCNc1cc(-c2cc(Cl)c(C(=O)O)c(OCC(F)(F)F)c2)ncn1 [compound 720] | 150 nM | – | 10 nM
COc1cc(F)cc2c1cc(C)n2CCNc1cc(-c2cc(Cl)c(C(=O)O)c(OCC(F)(F)F)c2)ncn1 [compound 721] | 60 nM | – | 18 nM
COc1cc(F)c(F)c2c1cc(C)n2CCNc1cc(-c2cc(Cl)c(C(=O)O)c(OCC(F)(F)F)c2)ncn1 [compound 722] | 80 nM | – | 32 nM
Cc1cc(F)cc2c1cc(C)n2CCNc1cc(-c2cc(Cl)c(C(=O)O)c(OCC(F)(F)F)c2)ncn1 [compound 723] | 287 nM | – | 37 nM
Cc1cc(F)c(F)c2c1cc(C)n2CCNc1cc(-c2cc(Cl)c(C(=O)O)c(OCC(F)(F)F)c2)ncn1 [compound 724] | 206 nM | – | 57 nM
COc1ccc(F)c2c1cc(C)n2CCNc1cc(-c2cc(Cl)c(C(=O)O)c(OCC(F)(F)F)c2)ncn1 [compound 725] | 58 nM | – | 6 nM
COc1cc(F)cc2c1cc(C)n2CCNc1cc(-c2cccc(-n3cccn3)c2)ncn1 [compound 726] | 388 nM | – | 41 nM
COc1cc(F)cc2c1cc(C)n2CCNc1cc(-c2ccc(-c3ccccn3)cc2)ncn1 [compound 727] | 238 nM | – | 34 nM
COc1cc(F)cc2c1cc(C)n2CCNc1cc(-c2ccc3ccncc3c2)ncn1 [compound 728] | 109 nM | – | 36 nM

SMILES | IC50 [1] | IC50 [2] | IC50 [3]
Cc1cc(F)cc2c1cc(C)n2CCNc1cc(-c2ccc(-c3ccccn3)cc2)ncn1 [compound 730] | 489 nM | – | 30 nM
Cc1cc(F)cc2c1cc(C)n2CCNc1cc(-c2ccc3ccncc3c2)ncn1 [compound 731] | 276 nM | – | 36 nM
Cc1cc(F)cc2c1cc(C)n2CCNc1cc(-c2ccc3ncccc3c2)ncn1 [compound 732] | 341 nM | – | 41 nM
Cc1cc(F)cc2c1cc(C)n2CCNc1cc(-c2ccc3nccnc3c2)ncn1 [compound 733] | 809 nM | – | 88 nM
Cc1cnoc1-c1ccc(-c2cc(NCCn3c(C)cc4c(C)cc(F)cc43)ncn2)cc1 [compound 734] | 465 nM | – | 95 nM
Cc1cnoc1-c1ccc(-c2cc(NCCn3c(C)cc4c(C)ccc(F)c43)ncn2)cc1 [compound 735] | 620 nM | – | 93 nM
COc1cc(F)cc2c1cc(C)n2CCNc1cc(-c2ccc(-c3oncc3C)cc2)ncn1 [compound 736, [2-(6-Fluoro-4-methoxy-2-methyl-indol-1-yl)-ethyl]-{6-[4-(4-methyl-isoxazol-5-yl)-phenyl]-pyrimidin-4-yl}-amine] | 399 nM | – | 39 nM
COc1ccc(F)c2c1cc(C)n2CCNc1cc(-c2ccc(-c3oncc3C)cc2)ncn1 [compound 737, [2-(7-Fluoro-4-methoxy-2-methyl-indol-1-yl)-ethyl]-{6-[4-(4-methyl-isoxazol-5-yl)-phenyl]-pyrimidin-4-yl}-amine] | 156 nM | – | 25 nM
COc1cc(F)c(F)c2c1cc(C)n2CCNc1cc(-c2ccc(-c3oncc3C)cc2)ncn1 [compound 738] | 177 nM | – | 63 nM
Cc1ccc(F)c2c1cc(C)n2CCNc1cc(-c2ccc3nn[nH]c3c2)ncn1 [compound 739, [6-(3H-Benzotriazol-5-yl)-pyrimidin-4-yl]-[2-(7-fluoro-2,4-dimethyl-indol-1-yl)-ethyl]-amine] | 450 nM | – | 43 nM
Cc1ccc(F)c2c1cc(C)n2CCNc1cc(-c2ccc3c(c2)OCCO3)ncn1 [compound 740] | 655 nM | – | 183 nM
Cc1ccc(F)c2c1cc(C)n2CCNc1cc(-c2ccc(-n3cncn3)cc2)ncn1 [compound 741, [2-(7-Fluoro-2,4-dimethyl-indol-1-yl)-ethyl]-[6-(4-[1,2,4]triazol-1-yl-phenyl)-pyrimidin-4-yl]-amine] | 505 nM | – | 37 nM
COc1cc(F)cc2c1cc(C)n2CCNc1cc(-c2ccc(-c3ccno3)cc2)ncn1 [compound 743, [2-(6-Fluoro-4-methoxy-2-methyl-indol-1-yl)-ethyl]-[6-(4-isoxazol-5-yl-phenyl)-pyrimidin-4-yl]-amine] | 315 nM | – | 10 nM
COc1ccc(F)c2c1cc(C)n2CCNc1cc(-c2ccc(-c3ccno3)cc2)ncn1 [compound 744, [2-(7-Fluoro-4-methoxy-2-methyl-indol-1-yl)-ethyl]-[6-(4-isoxazol-5-yl-phenyl)-pyrimidin-4-yl]-amine] | 251 nM | – | 8 nM
COc1cc(F)c(F)c2c1cc(C)n2CCNc1cc(-c2ccc(-c3ccno3)cc2)ncn1 [compound 745, [2-(6,7-Difluoro-4-methoxy-2-methyl-indol-1-yl)-ethyl]-[6-(4-isoxazol-5-yl-phenyl)-pyrimidin-4-yl]-amine] | 840 nM | – | 25 nM
